pIC50: −log10 of the molar value.
Experiments:
[1] = AUC (0 to infinity) in Sprague-Dawley rat at 10 mg/kg, po by LC-MS/MS analysis; type: ADME, organism-based; set-up: time infinity, dose 10 mg/kg, route oral; settings: plasma
[2] = target: C-X-C chemokine receptor type 5 (Homo sapiens) (UniProt P32302); experiment: Agonist activity at CXCR5 (unknown origin) at 12.5 uM relative to control
[3] = Drug excretion in Sprague-Dawley rat at 10 mg/kg, iv by LC-MS/MS analysis; type: ADME, organism-based; set-up: dose 10 mg/kg, route intravenous; settings: in vivo, read-out: Drug excretion
CYP3A4 = CYP3A4 (Homo sapiens, UniProt P08684); experiment: Inhibition of recombinant human CYP3A4 assessed as remaining activity at 10 uM preincubated for 5 mins followed by substrate and NADP addition measured after 20 mins by fluorescence assay relative to control; type: ADME; settings: read-out: Activity
[4] = target: Muscarinic acetylcholine receptor M5 (Homo sapiens) (UniProt P08912); experiment: Agonist activity at M5 receptor (unknown origin) at 12.5 uM relative to control
[5] = Plasma concentration in Sprague-Dawley rat at 10 mg/kg, iv measured at 2 hrs by LC-MS/MS analysis; type: ADME, organism-based; set-up: dose 10 mg/kg, route intravenous
[6] = target: 5-hydroxytryptamine receptor 2A (Homo sapiens) (UniProt P28223); experiment: Antagonist activity at 5HT2A receptor (unknown origin) at 10 uM relative to control
[7] = Drug uptake in Sprague-Dawley rat brain at 10 mg/kg, iv measured at 2 hrs by LC-MS/MS analysis; type: ADME, organism-based; set-up: dose 10 mg/kg, route intravenous; settings: read-out: Drug uptake
CYP2D6 = CYP2D6 (Homo sapiens, UniProt P10635); experiment: Inhibition of recombinant human CYP2D6 assessed as remaining activity at 10 uM preincubated for 5 mins followed by substrate and NADP addition measured after 20 mins by fluorescence assay relative to control; type: ADME; settings: read-out: Activity
[8] = Plasma concentration in Sprague-Dawley rat at 10 mg/kg, iv measured at 8 hrs by LC-MS/MS analysis; type: ADME, organism-based; set-up: dose 10 mg/kg, route intravenous
[9] = Plasma concentration in Sprague-Dawley rat at 10 mg/kg, po measured at 2 hrs by LC-MS/MS analysis; type: ADME, organism-based; set-up: dose 10 mg/kg, route oral
[10] = AUClast in Sprague-Dawley rat at 10 mg/kg, iv by LC-MS/MS analysis; type: ADME, organism-based; set-up: time 0 - last, dose 10 mg/kg, route intravenous; settings: plasma
[11] = target: T1, Metabotropic glutamate receptor 1 (Homo sapiens, UniProt Q13255); experiment: Antagonist activity at human mGluR1 expressed in human Chem-3 cells assessed as inhibition of L-glutamate-induced calcium release at 10 uM by calcium-5 reagent-based fluorescence assay relative to control; type: functional, cell-based
Target sequence in this assay (Q13255 19-1194 limits assumed): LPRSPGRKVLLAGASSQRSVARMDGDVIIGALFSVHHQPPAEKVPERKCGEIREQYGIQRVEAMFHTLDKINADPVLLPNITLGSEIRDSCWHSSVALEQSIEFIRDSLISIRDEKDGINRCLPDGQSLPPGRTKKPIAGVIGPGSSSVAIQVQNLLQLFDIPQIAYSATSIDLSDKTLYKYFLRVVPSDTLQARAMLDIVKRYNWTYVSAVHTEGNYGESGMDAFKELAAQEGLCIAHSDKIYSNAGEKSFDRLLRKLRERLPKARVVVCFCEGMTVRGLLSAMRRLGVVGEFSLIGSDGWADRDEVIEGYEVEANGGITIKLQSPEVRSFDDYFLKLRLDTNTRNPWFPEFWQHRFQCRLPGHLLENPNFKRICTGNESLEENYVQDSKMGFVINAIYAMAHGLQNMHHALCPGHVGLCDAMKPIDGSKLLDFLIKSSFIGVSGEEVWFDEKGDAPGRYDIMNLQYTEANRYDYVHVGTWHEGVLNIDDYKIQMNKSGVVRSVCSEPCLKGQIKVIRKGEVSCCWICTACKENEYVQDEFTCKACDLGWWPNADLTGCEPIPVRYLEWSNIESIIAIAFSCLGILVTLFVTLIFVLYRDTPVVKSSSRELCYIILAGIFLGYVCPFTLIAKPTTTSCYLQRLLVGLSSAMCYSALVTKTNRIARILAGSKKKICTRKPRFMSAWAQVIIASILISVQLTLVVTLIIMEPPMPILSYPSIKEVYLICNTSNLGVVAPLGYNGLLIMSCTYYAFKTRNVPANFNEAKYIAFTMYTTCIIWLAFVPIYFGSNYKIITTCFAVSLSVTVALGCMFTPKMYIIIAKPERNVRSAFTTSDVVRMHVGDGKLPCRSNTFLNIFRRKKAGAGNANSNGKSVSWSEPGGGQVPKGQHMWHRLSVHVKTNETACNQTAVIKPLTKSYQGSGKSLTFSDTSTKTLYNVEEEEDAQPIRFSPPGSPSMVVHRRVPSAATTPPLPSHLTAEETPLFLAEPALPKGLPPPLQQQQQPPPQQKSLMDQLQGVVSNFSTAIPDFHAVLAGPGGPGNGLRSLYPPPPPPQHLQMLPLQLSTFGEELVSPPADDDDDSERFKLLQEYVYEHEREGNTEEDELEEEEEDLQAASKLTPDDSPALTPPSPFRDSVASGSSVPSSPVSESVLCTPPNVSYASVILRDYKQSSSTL

[12] = Bioavailability in Sprague-Dawley rat at 10 mg/kg, iv by LC-MS/MS analysis; type: ADME, organism-based; settings: in vivo
[13] = Ratio of drug level in brain to plasma in Sprague-Dawley rat at 10 mg/kg, iv measured at 2 hrs by LC-MS/MS analysis; type: ADME, organism-based; set-up: dose 10 mg/kg, route intravenous; settings: read-out: BPR
[14] = target: C-C chemokine receptor type 5 (Homo sapiens) (UniProt P51681); experiment: Agonist activity at CCR5 (unknown origin) at 12.5 uM relative to control
[15] = target: Delta-type opioid receptor (Homo sapiens) (UniProt P41143); experiment: Antagonist activity at OPRD1 receptor (unknown origin) at 10 uM relative to control
CYP2C19 = CYP2C19 (Homo sapiens, UniProt P33261); experiment: Inhibition of recombinant human CYP2C19 assessed as remaining activity at 10 uM preincubated for 5 mins followed by substrate and NADP addition measured after 20 mins by fluorescence assay relative to control; type: ADME; settings: read-out: Activity
[16] = target: T1, Metabotropic glutamate receptor 1; experiment: Antagonist activity at human mGluR1 expressed in human Chem-3 cells assessed as inhibition of L-glutamate-induced calcium release by calcium-5 reagent-based fluorescence assay; type: functional, cell-based
[17] = Plasma concentration in Sprague-Dawley rat at 10 mg/kg, po measured at 8 hrs by LC-MS/MS analysis; type: ADME, organism-based; set-up: dose 10 mg/kg, route oral
[18] = target: Metabotropic glutamate receptor 5 (Homo sapiens, UniProt P41594); experiment: Antagonist activity at human mGluR5 expressed in human embryonic kidney cells assessed as inhibition of L-glutamate-induced calcium release at 10 uM by calcium-5 reagent-based fluorescence assay relative to control; type: functional, cell-based
[19] = target: C-X-C chemokine receptor type 2 (Homo sapiens) (UniProt P25025); experiment: Antagonist activity at CXCR2 (unknown origin) at 10 uM relative to control
[20] = target: 5-hydroxytryptamine receptor 2A (Homo sapiens) (UniProt P28223); experiment: Agonist activity at 5HT2A receptor (unknown origin) at 12.5 uM relative to control
[21] = target: Substance-P receptor (Homo sapiens) (UniProt P25103); experiment: Antagonist activity at NK1 receptor (unknown origin) at 10 uM relative to control
[22] = Cmax in Sprague-Dawley rat at 10 mg/kg, po by LC-MS/MS analysis; type: ADME, organism-based; set-up: dose 10 mg/kg, route oral; settings: in vivo
[23] = AUC (0 to infinity) in Sprague-Dawley rat at 10 mg/kg, iv by LC-MS/MS analysis; type: ADME, organism-based; set-up: time infinity, dose 10 mg/kg, route intravenous; settings: plasma
[24] = target: Cannabinoid receptor 1 (Homo sapiens) (UniProt P21554); experiment: Agonist activity at CB1 receptor (unknown origin) at 12.5 uM relative to control
[25] = target: 5-hydroxytryptamine receptor 2C (Homo sapiens) (UniProt P28335); experiment: Antagonist activity at 5HT2C receptor (unknown origin) at 10 uM relative to control
[26] = target: C-X-C chemokine receptor type 4 (Homo sapiens) (UniProt P61073); experiment: Agonist activity at CXCR4 (unknown origin) at 12.5 uM relative to control
[27] = target: Cannabinoid receptor 1 (Homo sapiens) (UniProt P21554); experiment: Antagonist activity at CB1 receptor (unknown origin) at 10 uM relative to control

Chain of 5-hydroxytryptamine receptor 2A (Homo sapiens) (P28223 whole entry): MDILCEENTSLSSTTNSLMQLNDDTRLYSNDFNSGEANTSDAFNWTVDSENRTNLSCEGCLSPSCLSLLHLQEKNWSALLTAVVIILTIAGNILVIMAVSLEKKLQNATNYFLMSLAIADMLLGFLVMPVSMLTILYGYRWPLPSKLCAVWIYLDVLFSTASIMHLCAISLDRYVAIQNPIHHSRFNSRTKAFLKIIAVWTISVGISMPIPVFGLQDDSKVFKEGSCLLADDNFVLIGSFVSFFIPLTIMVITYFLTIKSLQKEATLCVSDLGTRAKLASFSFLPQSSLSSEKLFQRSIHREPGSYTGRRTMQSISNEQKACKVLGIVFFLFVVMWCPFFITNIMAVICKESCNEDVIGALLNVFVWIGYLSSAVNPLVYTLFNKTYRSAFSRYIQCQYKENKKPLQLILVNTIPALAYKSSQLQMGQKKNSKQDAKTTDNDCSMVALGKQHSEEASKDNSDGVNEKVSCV
Chain of Cannabinoid receptor 1 (Homo sapiens) (P21554 whole entry): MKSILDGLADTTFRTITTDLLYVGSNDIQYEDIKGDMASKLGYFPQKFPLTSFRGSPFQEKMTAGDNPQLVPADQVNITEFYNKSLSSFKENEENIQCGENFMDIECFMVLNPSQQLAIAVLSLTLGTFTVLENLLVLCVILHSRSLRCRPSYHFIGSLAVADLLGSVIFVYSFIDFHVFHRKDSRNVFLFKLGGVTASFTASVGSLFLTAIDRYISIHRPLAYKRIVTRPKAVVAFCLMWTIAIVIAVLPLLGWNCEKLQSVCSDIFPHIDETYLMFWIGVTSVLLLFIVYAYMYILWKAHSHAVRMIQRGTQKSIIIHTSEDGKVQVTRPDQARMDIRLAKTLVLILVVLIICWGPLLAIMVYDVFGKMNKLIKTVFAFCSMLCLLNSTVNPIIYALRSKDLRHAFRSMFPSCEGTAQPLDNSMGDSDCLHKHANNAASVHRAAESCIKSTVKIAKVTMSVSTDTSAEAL
Chain of CYP2D6 (P10635 whole entry): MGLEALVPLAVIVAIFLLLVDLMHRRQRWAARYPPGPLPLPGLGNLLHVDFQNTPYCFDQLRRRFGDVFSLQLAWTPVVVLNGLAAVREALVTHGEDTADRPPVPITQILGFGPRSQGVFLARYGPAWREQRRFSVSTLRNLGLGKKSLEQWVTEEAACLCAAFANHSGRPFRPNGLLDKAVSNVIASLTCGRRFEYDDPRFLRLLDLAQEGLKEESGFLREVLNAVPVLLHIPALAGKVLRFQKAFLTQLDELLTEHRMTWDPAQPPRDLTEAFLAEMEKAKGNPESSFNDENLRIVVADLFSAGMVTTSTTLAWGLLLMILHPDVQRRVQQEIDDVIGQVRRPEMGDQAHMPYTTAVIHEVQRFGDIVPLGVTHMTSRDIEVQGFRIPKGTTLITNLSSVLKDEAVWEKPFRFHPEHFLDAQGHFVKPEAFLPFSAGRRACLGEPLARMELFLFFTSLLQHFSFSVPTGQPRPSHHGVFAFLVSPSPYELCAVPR
Chain of CYP3A4 (P08684 whole entry): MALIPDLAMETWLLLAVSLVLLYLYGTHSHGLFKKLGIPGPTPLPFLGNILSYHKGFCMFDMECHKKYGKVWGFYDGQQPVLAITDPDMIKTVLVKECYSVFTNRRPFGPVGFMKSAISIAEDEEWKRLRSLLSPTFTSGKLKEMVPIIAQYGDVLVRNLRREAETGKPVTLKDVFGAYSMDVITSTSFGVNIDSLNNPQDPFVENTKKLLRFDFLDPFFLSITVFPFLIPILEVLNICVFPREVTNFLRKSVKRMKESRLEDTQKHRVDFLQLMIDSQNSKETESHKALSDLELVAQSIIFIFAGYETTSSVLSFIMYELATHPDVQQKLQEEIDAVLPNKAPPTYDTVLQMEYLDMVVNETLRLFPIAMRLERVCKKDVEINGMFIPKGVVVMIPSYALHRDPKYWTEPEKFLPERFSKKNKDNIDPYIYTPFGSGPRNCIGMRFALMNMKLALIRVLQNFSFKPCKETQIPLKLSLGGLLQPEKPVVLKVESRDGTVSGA
Chain of Substance-P receptor (Homo sapiens) (P25103 whole entry): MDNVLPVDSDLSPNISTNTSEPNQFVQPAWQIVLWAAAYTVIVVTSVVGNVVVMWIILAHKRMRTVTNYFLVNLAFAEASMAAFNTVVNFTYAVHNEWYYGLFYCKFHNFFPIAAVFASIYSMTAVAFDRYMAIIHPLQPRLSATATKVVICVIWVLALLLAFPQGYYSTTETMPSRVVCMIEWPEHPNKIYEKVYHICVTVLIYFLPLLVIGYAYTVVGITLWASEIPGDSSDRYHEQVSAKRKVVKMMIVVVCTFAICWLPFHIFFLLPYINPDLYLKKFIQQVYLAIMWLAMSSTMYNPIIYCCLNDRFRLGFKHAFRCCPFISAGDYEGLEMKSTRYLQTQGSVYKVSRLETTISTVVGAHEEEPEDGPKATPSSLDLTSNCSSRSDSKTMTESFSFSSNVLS
Chain of CYP2C19 (P33261 whole entry): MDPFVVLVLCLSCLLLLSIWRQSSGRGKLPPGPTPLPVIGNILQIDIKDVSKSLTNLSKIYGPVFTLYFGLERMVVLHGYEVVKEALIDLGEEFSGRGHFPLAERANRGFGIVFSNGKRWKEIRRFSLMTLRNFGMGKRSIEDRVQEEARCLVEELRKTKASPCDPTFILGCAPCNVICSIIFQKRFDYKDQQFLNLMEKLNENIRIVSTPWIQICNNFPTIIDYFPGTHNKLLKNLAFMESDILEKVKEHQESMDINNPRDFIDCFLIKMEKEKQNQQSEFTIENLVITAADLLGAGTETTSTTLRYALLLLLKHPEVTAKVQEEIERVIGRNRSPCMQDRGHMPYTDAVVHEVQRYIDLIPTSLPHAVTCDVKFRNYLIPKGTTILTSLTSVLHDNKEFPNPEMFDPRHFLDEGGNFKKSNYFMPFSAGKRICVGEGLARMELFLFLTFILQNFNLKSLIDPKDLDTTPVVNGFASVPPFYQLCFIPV
Chain of C-X-C chemokine receptor type 2 (Homo sapiens) (P25025 whole entry): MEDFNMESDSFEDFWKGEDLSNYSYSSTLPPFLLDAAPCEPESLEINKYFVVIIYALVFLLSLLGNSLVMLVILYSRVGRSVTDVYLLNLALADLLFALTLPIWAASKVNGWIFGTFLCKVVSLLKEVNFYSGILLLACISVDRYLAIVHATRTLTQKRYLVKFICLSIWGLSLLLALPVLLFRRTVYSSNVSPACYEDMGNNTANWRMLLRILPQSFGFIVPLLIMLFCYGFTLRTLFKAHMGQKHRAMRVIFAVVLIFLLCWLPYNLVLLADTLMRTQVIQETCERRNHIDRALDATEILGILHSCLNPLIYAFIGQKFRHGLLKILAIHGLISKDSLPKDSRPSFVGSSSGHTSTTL
Chain of C-X-C chemokine receptor type 5 (Homo sapiens) (P32302 whole entry): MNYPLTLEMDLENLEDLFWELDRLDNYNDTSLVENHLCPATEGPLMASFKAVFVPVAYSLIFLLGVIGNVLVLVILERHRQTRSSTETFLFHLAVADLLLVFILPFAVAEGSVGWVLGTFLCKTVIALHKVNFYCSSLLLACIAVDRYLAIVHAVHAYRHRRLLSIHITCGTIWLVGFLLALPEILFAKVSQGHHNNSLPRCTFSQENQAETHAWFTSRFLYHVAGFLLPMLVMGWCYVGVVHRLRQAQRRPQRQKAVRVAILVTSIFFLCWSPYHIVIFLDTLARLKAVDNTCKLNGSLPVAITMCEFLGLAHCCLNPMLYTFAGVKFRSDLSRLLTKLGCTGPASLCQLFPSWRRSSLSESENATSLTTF

Cc1cc(C(=O)N2CCc3c(sc(NCc4ccccc4)c3C#N)C2)[nH]n1
AUC(0-inf) [1]: 4250 ng·h/mL
Activity [2]: -2.9%
dose excreted [3]: 0%
activity at 20 min, 10 µM (CYP3A4): 20.5%
Activity [4]: 0.9%
concentration at 2 h [5]: 1240 ng/mL
inhibition [6]: 36.2%
concentration at 2 h [7]: 138 ng/mL
activity at 20 min, 10 µM (CYP2D6): 33.7%
concentration at 8 h [8]: 80 ng/mL
concentration at 2 h [9]: 1190 ng/mL
AUC(0-t) [10]: 9060 ng·h/mL
inhibition [11]: 71.2%
bioavailability [12]: 45.8%
Kp at 2 h [13]: 0.14
Activity [14]: -0.6%
inhibition [15]: 3.8%
activity at 20 min, 10 µM (CYP2C19): 14.2%
pIC50 [16]: 5.85
concentration at 8 h [17]: 70 ng/mL
inhibition [18]: 59.8%
inhibition [19]: -4.6%
Activity [20]: -4%
inhibition [21]: -2.1%
Cmax [22]: 1410 ng/mL
AUC(0-inf) [23]: 9270 ng·h/mL
Activity [24]: 0.3%
inhibition [25]: -9.4%
Activity [26]: -3.1%
inhibition [27]: -2.8%
